Measured values: publication PMC11729428, “New Potent Inhibitor of Transforming Growth Factor-Beta (TGFβ) Signaling that is Efficacious against Microsatellite Stable Colorectal Cancer Metastasis in Combination with Immune Checkpoint Therapy in Mice” (ACS Pharmacology & Translational Science, 2024)
≈ marks a conversion by molar mass, not a printed value. Like-named read-outs stand apart in the source and are kept apart here.

How the values were obtained:
[1] = rat, in vivo
Experimental: (§1) Sprague-Dawley rats were procured from Hylasco Bio-Technology Pvt. Ltd., Hyderabad. After completion of
(§2) the acclimatization period twelve healthy rats were randomly allocated to the control and treatment g roups.
(§3) mg/kg BID) treated animals, having three rats/sex/group. Rats from control group received vehicle, consisting
(§4) quantity sufficient to 1% w/v Carboxy Methyl Cellulose Sodium Salt. Rats from treatment groups were
(§5) administered with suspensions of the indicated drugs in vehicle, orally twice a day fo r an intended period of 28
(§6) consecutive days. The dosing volume was kept constant at 10 mL/kg for each rat.
(§7) clinical sign that worsened during the treatment, were necropsied in the shortest time for ethical reasons. The
(§8) rest of the rats were necropsied at the end of the treatment.
(§9) asphyxiation on day 29, except for one group of HYL001 treated rats with 71 mg/kg BID, that were allowed to
(§10) recover from treatment for further 28 days.
(§11) The rats were subjected to detailed gross pathological examination which included careful examination of the
(§12) external surface of the body, all orifices and the cranial, thoracic and abdominal cavities and their contents. After
(§13) gross pathological examination the vital organs were trimmed of any adherent tissue and were weighed wet.
(§14) Paired organs were weighed together. Organ weights relative to terminal body weights were calculated for each
(§15) Parameters evaluated during the study included in-life observations such as clinical signs observation, body
(§16) weights, percent body weight gains, and feed consumption. Parameters like hematology, clinical chemistry,
(§17) gross pathology, and organ weights were evaluated on the day of termination. Several organs/tissues were further
(§18) processed and evaluated for histopathology, where special attention was given to bones, gastrointestinal system
(§19) (stomach, duodenum, jejunum, ileum, caecum, colon and rectum), heart, and vascular lesions in the aorta and
(§20) coronary arteries. For histopathology, 3-5 μM thick tissue sections were cut and stained with hematoxylin-eosin
(§21) stain. The heart was trimmed by longitudinally bisecting along a plane perpendicular to the plane of the
(§22) pulmonary artery to expose the right atrioventricular, left atrioventricular, and aortic valves. Both halves of the
(§23) heart were embedded as hemisection in paraffin with the cut surface down. Blocks were sectioned to obtain at
least three heart valves.

[2] = oral, cited from earlier work
[3] = Exploratory toxicology study in SD rats; conditions: for Degeneration of heart valves (histopathology grade): HYL001: after 4 weeks of repeated dosing, vactosertib: after 7–8 days of treatment; for Retained hypertrophied cartilage physis in sternum and femur (grade): vactosertib: all animals, HYL001: a few females
Experimental: as §1, §2, §3, §4, §5, §6, §7, §8, §9, §10, §11, §12, §13, §14, §15, §16, §17, §18, §19, §20, §21, §22, §23
least three heart valves.

[4] = Exploratory toxicology study in Balb/C mice; type: in vivo
Experimental: In comparison to that in rats, toxicity of TGFβ receptor-1 inhibitors in mice was less severe (Figure 4). […] Histopathology examination in bones found relatively mild phenotypes (Figure 4A).
performed using GraphPad Prism statistical software version 5.02 for Windows, GraphPad Software, San Diego
The study design in mice was similar as in rats, except 5 mice of each sex were used (n=10 in total), and that
there was not a recovery group. All analyses were performed at day 29 after termination of treatment.

[5] = test system: mouse tumor organoids (MTOs), CRC liver metastases; assay: Prevention of liver metastasis formation after MTO injection (monotherapy); type: in vivo, mice; conditions: 0.1× dose: 71 mg/kg BID HYL001, 80 mg/kg BID galunisertib
Experimental: We first assayed the capacity of HYL001 to inhibit liver metastasis formation as a monotherapy. In this model, we inoculated MTOs derived from liver metastases into the portal vein (by intrasplenic or direct intravenous injection) to model their becoming trapped in hepatic sinusoids and, depending on their metastatic capacity, the initiation of liver nodules. […] Remarkably, 0.1 × mol equiv (71 mg/kg BID) of HYL001 was sufficient to prevent metastasis formation in 10 out of 11 animals.
Figure 5 HYL001 prevents metastasis formation in vivo. (A) Experimental scheme, including injection of MTOs. Experimental end point was at day 28, 2 weeks after treatment stop. […] (B) Liver metastases (Mets) were counted at end points; each point represents one mouse. Nonparametric Mann–Whitney U test, two-tailed. ns: P > 0.05; *P < 0.05; **P < 0.01; ***P < 0.001; (C) representative images of H & E whole slides containing liver sections from mice treated with TGFβ inhibitors; dashed line circles delimit metastases. […] 0.3× and 0.1×: dilutions thereof. Bars, 10 mm.
For all tumor cell injections, C57BL/6J (or athymic BALB/C nu/nu) mice were purchased from Janvier at 6 weeks of age and injected at 7–8 weeks. Sex was matched with the origin of the tumor organoids, i.e., males for this study. […] Visible liver metastases were counted, and data were analyzed using GraphPad Prism software (v.7.03). […]

p38α = target: T1, p38α (Homo sapiens, UniProt Q16539); assay: Radiometric in vitro kinase activity assay (Kinase Profiler); type: biochemical; conditions: full-length recombinant protein; read-out: kinase inhibition IC50, p38α
T1 construct: p38alpha was used as a full -length recombinant protein; purchased Eurofins Pharma Discovery Services / Eurofins Cerep (Kinase Profiler service)
Experimental: 5. Methods for In vitro characterizations of HYL001
Kinase affinity and selectivity […]
The activity, measured as IC50, of inhibitors was determined by radiometric γ-33P-ATP-mediated in vitro phosphorylation assays, using the Kinase Profiler service from Eurofins Pharma Discovery Services (Wolverhampton, UK) and Eurofins Cerep (Celle L’Evescault, France). Compounds, prepared in 100% DMSO, were tested using a 9-point curve with half -log serial dilutions (1–10,000 nM). […]

Solubility = type: physicochemical
Experimental: The solubilities in this solution are 0.7 mg/mL (1b) and 0.23 mg/mL (1a). In most in vivo experiments, a homogeneous suspension in the following vehicle was used: sodium carboxymethylcellulose (1%), sodium dodecyl sulfate (0.4%), polyvinylpyrrolidone (0.085%), and antifoam-A (0.05%). The solubilities in this vehicle are approximately 0.15 mg/mL (1b) and 0.09 mg/mL (1a). […] Therefore, as a proof-of-concept, we leveraged the hydroxyl handle to design HYL002. We added a carbonyl-4-piperidinopiperidine group, in analogy to the ester that solubilizes SN-38 into irinotecan, and that can be cleaved via hydrolysis inside cells[19] (Figure S1). HYL001 reacted with commercially available 4-piperidinopiperidine-1-carbonyl chloride in chloroform using triethylamine and catalytic amounts of DMAP (Scheme S1). We then transformed the resulting compound HYL002 into the corresponding HCl salt to aid the in vivo drug formulation. The free base was dissolved in dioxane under N2, where it was treated dropwise with 10 equiv of 4 M HCl in dioxane at room temperature with vigorous stirring. The reaction mixture was then taken to dryness in vacuo, giving the HCl salt of HYL002.

[6] = aqueous dosing vehicle (NaCMC/SDS/PVP/antifoam-A), aqueous with cosolvent or surfactant or cyclodextrin, vehicle: sodium carboxymethylcellulose (1%), sodium dodecyl sulfate (0.4%), polyvinylpyrrolidone (0.085%), antifoam-A (0.05%), read-out: Solubility

T1 sequence (Q16539 whole entry): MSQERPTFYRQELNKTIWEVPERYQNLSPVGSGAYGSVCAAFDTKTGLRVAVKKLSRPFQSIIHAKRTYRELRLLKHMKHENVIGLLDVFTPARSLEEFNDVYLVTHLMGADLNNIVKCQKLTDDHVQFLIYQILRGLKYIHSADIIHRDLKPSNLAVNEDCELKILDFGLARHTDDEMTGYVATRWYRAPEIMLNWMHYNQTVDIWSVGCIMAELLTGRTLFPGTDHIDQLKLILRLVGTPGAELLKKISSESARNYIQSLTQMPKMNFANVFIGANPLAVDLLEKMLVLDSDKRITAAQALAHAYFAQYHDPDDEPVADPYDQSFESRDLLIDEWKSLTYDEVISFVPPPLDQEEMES

In the case of Cc1cccc(-c2[nH]c(CNc3ccccc3F)nc2-c2ccc3ncnn3c2)n1 [vactosertib, N -((4-([1,2,4]Triazolo[1,5-a]Pyridin-6-Yl)-5-(6-Methylpyridin-2-Yl)-1 H -Imidazole-2-Yl)Methyl)-2-Fluoroaniline], the “Animals showing a curved sternum at death or end point” value [1] is given as “all”, the “Microscopic findings along the gastrointestinal tract” value [1] is given as “minimal hyperplasia of the nonglandular stomach and chronic inflammation observed in one female rat” and the AUCinf ([2]; mice (FVB/N), 10 mg/kg ref 21) is given as 752 ng·h/mL. The AUClast ([2]; mice (FVB/N), 10 mg/kg ref 21) was 724 ng·h/mL, the Cl/F ([2]; mice (FVB/N), 10 mg/kg ref 21) was 222 mL/min/kg and the Cmax ([2]; mice (FVB/N), 10 mg/kg ref 21) was 625 ng/mL. The T1/2 ([2]; mice (FVB/N), 10 mg/kg ref 21) was 196 min, the Tmax ([2]; mice (FVB/N), 10 mg/kg ref 21) was 30 min and the Vss/F ([2]; mice (FVB/N), 10 mg/kg ref 21) was 18 L/kg. For the same compound, the “Degeneration of heart valves (histopathology grade)” value [3] was “moderate”, the “Animals with chronic inflammation of the myocardium” value ([3]; at early end points (day 7–8)) was “all 6” and the Mortality ([3]; group 4, equimolar dose (82 mg/kg BID)) was “all female rats were found dead on day 7 and all male rats had to be sacrificed on day 8”. The “Retained hypertrophied cartilage physis in sternum and femur (grade)” value [3] was “mild–moderate”, the “Mortality or signs of morbidity” value ([4]; equimolar dose, mice) was “No mortality or signs of morbidity” and the “Female mice with slight inflammatory infiltrates in liver” value ([4]; female, Balb/C, mouse, in vivo, 29 day) was 4/5. The Neutrophil count ([4]; mouse, in vivo) was “slight increase”.
With Cc1cccc(-c2nn3c(c2-c2ccnc4ccc(O)cc24)CCC3)n1 [HYL001, 4-(2-(6-Methylpyridin-2-yl)-5,6-dihydro-4H-pyrrolo[1,2-b]pyrazol-3-yl)quinolin-6-ol] the “Animals showing a curved sternum at death or end point” value [1] was “Some female rats”, the “Number of mice without detectable liver metastases (liver mets NO)” value [5] was 10 out of 11 and the “Degeneration of heart valves (histopathology grade)” value [3] was “minimal to mild”. For the same compound, the Heart abnormalities ([3]; low-dose group 1 (25 mg/kg BID)) was “no heart abnormalities were observed”, the no-observed-adverse-effect level ([3]; male rats) was 25 mg/kg BID and the “Effects on body weight (gain), feed consumption, hematology, and clinical chemistry analytes” value ([3]; rats of both sexes, oral, either dose level) was “no HYL001-related effects”. For the same compound, the “Retained hypertrophied cartilage physis in sternum and femur (grade)” value [3] was “mild”, the “Female mice with slight inflammatory infiltrates in liver” value ([4]; mouse, in vivo) was 2/5 and the “Mortality or signs of morbidity” value ([4]; mouse, in vivo) was “No mortality or signs of morbidity”. The IC50 (p38α) was 548 nM, the solubility (Solubility; PBS/2-hydroxypropyl-β-cyclodextrin solution, aqueous with cosolvent or surfactant or cyclodextrin, solution of PBS/2-hydroxypropy-β-cyclodextrin (1 g/mL), read-out: Solubility) was 230 µg/mL (≈ 672 µM) and the solubility (Solubility; [6]) was roughly 90 µg/mL (≈ 263 µM). For the same compound, the Solubility in water (Solubility) was “poorly soluble”.
In the case of Cc1cccc(-c2nn3c(c2-c2ccnc4ccc(C(N)=O)cc24)CCC3)n1 [galunisertib], the AUClast ([2]; mice (♀ CD-1), 75 mg/kg ref 20) is given as 3110 ng·h/mL, the Cmax ([2]; mice (♀ CD-1), 75 mg/kg ref 20) is given as 3330 ng/mL and the T1/2 ([2]; mice (♀ CD-1), 75 mg/kg ref 20) is given as 84 min. For the same compound, the Tmax ([2]; mice (♀ CD-1), 75 mg/kg ref 20) was 30 min, the “Number of mice with detectable liver metastases (liver mets YES)” value [5] was “All treated animals developed metastases” and the IC50 (p38α) was 920 nM. The solubility (Solubility; [6]) was roughly 150 µg/mL (≈ 406 µM), the solubility (Solubility; solution of PBS/2-hydroxypropy-β-cyclodextrin (1 g/mL)) was 700 µg/mL (≈ 1890 µM) and the Solubility in water (Solubility) was “poorly soluble”.
